{"source": "patent US20120100105A1", "about": "“AGENT AND METHOD FOR TREATING REFRACTORY CHRONIC HEPATITIS C” (MEIJI SEIKA PHARMA CO., LTD., priority 2009, published 2012)", "key": {"[1]": {"tested_on": "genotype 1b HCV", "assay": "Antiviral effect of 22β-methoxyolean-12-ene-3β,24(4β)-diol and PEG-IFN in refractory chronic hepatitis C (LVR case); blood HCV load by TaqMan PCR", "type": "in vivo, human", "settings": "for Ratio of negativity achieved in blood HCV after 12 weeks from administrations (age) / Ratio of negativity achieved in blood HCV after 12 weeks from administrations (sex): LVR case", "method": "Subjects were 21 patients (9 men, 12 women) infected with genotype 1b HCV and having chronic hepatitis C. […] To these subject patients in a refractory chronic hepatitis C case, a fine granule containing 25 mg or 400 mg of […] was orally administered twice a day and 180 μg of PEG-IFN-α-2a (Pegasys: manufactured by Roche Holding AG and Chugai Pharmaceutical Co., Ltd.) was subcutaneously administered per week. […] The blood HCV load was measured using the TaqMan® PCR method, and the baseline of negativity was below 1.2 Log IU/mL.\nThe backgrounds of all the patients in the two administration groups are as follows. […] These exceeded the baseline, 5.00 Log IU/mL, of the high viral load, and all the patients were infected with genotype 1b."}, "[2]": {"tested_on": "genotype 1b HCV", "assay": "Antiviral effect of 22β-methoxyolean-12-ene-3β,24(4β)-diol and PEG-IFN in refractory chronic hepatitis C (NR case); blood HCV load by TaqMan PCR", "type": "in vivo, human", "settings": "for Ratio of negativity achieved in blood HCV after 24 weeks from administrations: NR-case patients N=6; for Ratio of negativity achieved in blood HCV after 24 weeks from administrations (age) / Ratio of negativity achieved in blood HCV after 24 weeks from administrations (sex): NR case", "method": "Subjects were the following patients (12 in total; 7 men, 5 women) who had been infected with genotype 1b HCV and had chronic hepatitis C and who were particularly considered to be highly refractory.\nTo these subject patients (NR case), a fine granule containing 25 mg or 400 mg of 22β-methoxyolean-12-ene-3β,24(4β)-diol was orally administered twice a day and 180 μg of PEG-IFN-α-2a (Pegasys: Roche Holding AG and Chugai Pharmaceutical Co., Ltd.) was subcutaneously administered per week. These administrations were continued for 24 weeks (hereinafter, the patients were referred to as a “50 mg/day administration group” or an “800 mg/day administration group”). The transitions of the blood HCV load and safety (clinical test value abnormality: blood hemoglobin value) before the administrations and up to 24 weeks were examined. The blood HCV load was measured using the TaqMan® PCR method, and the baseline of negativity was below 1.2 Log IU/mL.\nThe backgrounds of all the patients in the two administration groups are as follows. As for the sex, there were 7 men (58.3%) and 5 women […]. As for the age, the average age was 58.3, the youngest was 43 years old, and the oldest was 69 years old. With the baseline of 60 years old, there were 6 people who were under 60 years old (50.0%) and 6 people who were 60 years old or above (50.0%). The average blood HCV load of the patients before the administrations was 6.66 Log IU/mL with the minimum load of 5.30 Log IU/mL and the maximum load of 7.40 Log IU/mL. These exceeded the baseline, 5.00 Log IU/mL, of the high viral load, and all the patients were infected with genotype 1b."}, "[3]": {"tested_on": "HCV", "settings": "without ribavirin; cited from earlier work"}, "[4]": {"settings": "60 years old or above, 50 mg/day with PEG-IFN-α-2a"}, "[5]": {"settings": "60 years old or above, 800 mg/day with PEG-IFN-α-2a"}, "[6]": {"settings": "60 years old or above, total of both doses with PEG-IFN-α-2a"}, "[7]": {"settings": "Men, 50 mg/day with PEG-IFN-α-2a"}, "[8]": {"settings": "Men, 800 mg/day with PEG-IFN-α-2a"}, "[9]": {"settings": "Men, total of both doses with PEG-IFN-α-2a"}, "[10]": {"settings": "Women, 50 mg/day with PEG-IFN-α-2a"}, "[11]": {"settings": "Women, 800 mg/day with PEG-IFN-α-2a"}, "[12]": {"settings": "Women, total of both doses with PEG-IFN-α-2a"}, "[13]": {"settings": "under 60 years old, 50 mg/day with PEG-IFN-α-2a"}, "[14]": {"settings": "under 60 years old, 800 mg/day with PEG-IFN-α-2a"}, "[15]": {"settings": "under 60 years old, total of both doses with PEG-IFN-α-2a"}}}
{"molecule": "CO[C@@H]1CC(C)(C)C[C@H]2C3=CC[C@@H]4[C@@]5(C)CC[C@H](O)[C@](C)(CO)[C@@H]5CC[C@@]4(C)[C@]3(C)CC[C@@]12C", "note": "[22β-methoxyolean-12-ene-3β,24(4β)-diol]", "values": [{"measurement": "Ratio of negativity achieved in blood HCV after 12 weeks from administrations", "setting": "[1]; 50 mg/day (25 mg orally twice a day) combined with PEG-IFN-α-2a 180 μg/week s.c., LVR-case patients N=11, negativity below 1.2 Log IU/mL", "value": "63.6% (7/11)"}, {"measurement": "Ratio of negativity achieved in blood HCV after 12 weeks from administrations", "setting": "[1]; 800 mg/day (400 mg orally twice a day) combined with PEG-IFN-α-2a 180 μg/week s.c., LVR-case patients N=10", "value": "50.0% (5/10)"}, {"measurement": "Ratio of negativity achieved in blood HCV after 12 weeks from administrations (age)", "setting": "[1]; [4]", "value": "75.0% (6/8)"}, {"measurement": "Ratio of negativity achieved in blood HCV after 12 weeks from administrations (age)", "setting": "[1]; [5]", "value": "25.0% (1/4)"}, {"measurement": "Ratio of negativity achieved in blood HCV after 12 weeks from administrations (age)", "setting": "[1]; [6]", "value": "58.3% (7/12)"}, {"measurement": "Ratio of negativity achieved in blood HCV after 12 weeks from administrations (sex)", "setting": "[1]; [7]", "value": "60.0% (3/5)"}, {"measurement": "Ratio of negativity achieved in blood HCV after 12 weeks from administrations (sex)", "setting": "[1]; [8]", "value": "50.0% (2/4)"}, {"measurement": "Ratio of negativity achieved in blood HCV after 12 weeks from administrations (sex)", "setting": "[1]; [9]", "value": "55.6% (5/9)"}, {"measurement": "Ratio of negativity achieved in blood HCV after 12 weeks from administrations (sex)", "setting": "[1]; [10]", "value": "66.7% (4/6)"}, {"measurement": "Ratio of negativity achieved in blood HCV after 12 weeks from administrations (sex)", "setting": "[1]; [11]", "value": "50.0% (3/6)"}, {"measurement": "Ratio of negativity achieved in blood HCV after 12 weeks from administrations (sex)", "setting": "[1]; [12]", "value": "58.3% (7/12)"}, {"measurement": "Blood HCV load continued to be negative for 48 weeks of the administration period", "setting": "[1]; patients negative by 12 weeks whose administrations (25 or 400 mg twice a day with PEG-IFN-α-2a 180 μg/week) were continued up to 48 weeks", "value": "two out of three patients"}, {"measurement": "Relapse after the non-treatment period of subsequent 24 weeks", "setting": "[1]; the patients negative through 48 weeks of administration with PEG-IFN-α-2a, complete recovery was achieved", "value": "no relapse occurred"}, {"measurement": "Ratio of negativity achieved in blood HCV after 12 weeks from administrations (age)", "setting": "[1]; [13]", "value": "33.3% (1/3)"}, {"measurement": "Ratio of negativity achieved in blood HCV after 12 weeks from administrations (age)", "setting": "[1]; [14]", "value": "66.7% (4/6)"}, {"measurement": "Ratio of negativity achieved in blood HCV after 12 weeks from administrations (age)", "setting": "[1]; [15]", "value": "55.6% (5/9)"}, {"measurement": "Ratio of negativity achieved in blood HCV after 24 weeks from administrations", "setting": "[2]; 50 mg/day (25 mg orally twice a day) combined with PEG-IFN-α-2a 180 μg/week s.c., negativity below 1.2 Log IU/mL", "value": "50.0% (3/6)"}, {"measurement": "Ratio of negativity achieved in blood HCV after 24 weeks from administrations", "setting": "[2]; 800 mg/day (400 mg orally twice a day) combined with PEG-IFN-α-2a 180 μg/week s.c.", "value": "50.0% (3/6)"}, {"measurement": "Ratio of negativity achieved in blood HCV after 24 weeks from administrations (age)", "setting": "[2]; [4]", "value": "50.0% (1/2)"}, {"measurement": "Ratio of negativity achieved in blood HCV after 24 weeks from administrations (age)", "setting": "[2]; [5]", "value": "50.0% (2/4)"}, {"measurement": "Ratio of negativity achieved in blood HCV after 24 weeks from administrations (age)", "setting": "[2]; [6]", "value": "50.0% (3/6)"}, {"measurement": "Ratio of negativity achieved in blood HCV after 24 weeks from administrations (sex)", "setting": "[2]; [7]", "value": "50.0% (2/4)"}, {"measurement": "Ratio of negativity achieved in blood HCV after 24 weeks from administrations (sex)", "setting": "[2]; [8]", "value": "33.3% (1/3)"}, {"measurement": "Ratio of negativity achieved in blood HCV after 24 weeks from administrations (sex)", "setting": "[2]; [9]", "value": "42.9% (3/7)"}, {"measurement": "Ratio of negativity achieved in blood HCV after 24 weeks from administrations (sex)", "setting": "[2]; [10]", "value": "50.0% (1/2)"}, {"measurement": "Ratio of negativity achieved in blood HCV after 24 weeks from administrations (sex)", "setting": "[2]; [11]", "value": "66.7% (2/3)"}, {"measurement": "Ratio of negativity achieved in blood HCV after 24 weeks from administrations (sex)", "setting": "[2]; [12]", "value": "60.0% (3/5)"}, {"measurement": "Ratio of negativity achieved in blood HCV after 24 weeks from administrations (age)", "setting": "[2]; [13]", "value": "50.0% (2/4)"}, {"measurement": "Ratio of negativity achieved in blood HCV after 24 weeks from administrations (age)", "setting": "[2]; [14]", "value": "50.0% (1/2)"}, {"measurement": "Ratio of negativity achieved in blood HCV after 24 weeks from administrations (age)", "setting": "[2]; [15]", "value": "50.0% (3/6)"}, {"measurement": "Anti-HCV activity in combination with an IFN", "setting": "[3]", "value": "synergistic anti-HCV activity"}]}
